15 compounds from patent US8574563B2 (Bristol-Myers Squibb Company, priority 2006, dated 2013) can be followed below.

Each structure is given as a SMILES string.

One assay concerns HCV 1b-377-neo replicon cells. Nature of the assay: HCV replicon assay, HCV 1b-377-neo replicon cells (1b FRET). The note with it: HCV 1b-377-neo replicon cells; HCV 1b genotype; read-out: EC50 range against HCV 1b (Table 2, Range). The class given is cell-based, Hepatitis C virus genotype 1b. The method, boiled down: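 FRET-based replicon assay in HCV 1b-377-neo cells, including a comparison line carrying the NS5A Y2065H mutation that confers resistance to a reference compound.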
By EC50 is commonly meant the concentration giving half of the maximal effect. Turning to `O=C(OCc1ccccc1)N1CCN(C(C(=O)N2CCC[C@H]2c2ncc(-c3ccc(-c4ccc(-c5c[nH]c([C@@H]6CCCN6C(=O)[C@H]6CCCO6)n5)cc4)cc3)[nH]2)c2ccccc2)CC1` (single isomer, unassigned) [Example 103-5], the concentration giving a half-maximal response (EC50) fell in the range of 0.001 to 0.999 nM.

Still in this assay, the particulars now being: Hepatitis C virus, HCV 1b-377-neo replicon cells; HCV 1b genotype; read-out: EC50 range against HCV 1b (Table 2, Range).
For the compound `COC(=O)N[C@@H](C(=O)N1CCC[C@H]1c1ncc(-c2ccc(-c3ccc(-c4cnc([C@@H]5CCCN5C(=O)[C@@H]5C[C@@H](F)CN5)[nH]4)cc3)cc2)[nH]1)c1ccccc1` [Example 82, methyl ((1R)-2-((2S)-2-(5-(4′-(2-((2S)-1-((4R)-4-fluoro-L-prolyl)-2-pyrrolidinyl)-1H-imidazol-5-yl)-4-biphenylyl)-1H-imidazol-2-yl)-1-pyrrolidinyl)-2-oxo-1-phenylethyl)carbamate], the concentration giving a half-maximal response (EC50) lay within 0.001 to 0.999 nM. For the compound `CCN(CC)[C@@H](C(=O)N1CCC[C@H]1c1ncc(-c2ccc(-c3ccc(-c4cnc([C@@H]5CCCN5C(=O)[C@H](Cc5cscn5)NC(=O)OC)[nH]4)cc3)cc2)[nH]1)c1ccccc1` [cj-80, methyl ((1S)-2-((2S)-2-(5-(4′-(2-((2S)-1-((2R)-2-(diethylamino)-2-phenylacetyl)-2-pyrrolidinyl)-1H-imidazol-5-yl)-4-biphenylyl)-1H-imidazol-2-yl)-1-pyrrolidinyl)-2-oxo-1-(1,3-thiazol-4-ylmethyl)ethyl)carbamate], the 50% effective concentration (EC50) was in the range of 0.001 to 0.999 nM. With `COC(=O)N[C@H](C(=O)N1[C@H](c2ncc(-c3ccc(-c4ccc(-c5cnc([C@@H]6C[C@@H]7C[C@@H]7N6C(=O)[C@@H](NC(=O)OC)C(C)(C)C)[nH]5)cc4)cc3)[nH]2)C[C@@H]2C[C@@H]21)C(C)(C)C` [Example M128, methyl ((1S)-1-(((1S,3S,5S)-3-(5-(4′-(2-((1S,3S,5S)-2-((2S)-2-((methoxycarbonyl)amino)-3,3-dimethylbutanoyl)-2-azabicyclo[3.1.0]hex-3-yl)-1H-imidazol-5-yl)-4-biphenylyl)-1H-imidazol-2-yl)-2-azabicyclo[3.1.0]hex-2-yl)carbonyl)-2,2-dimethylpropyl)carbamate], the EC50 fell in the range of 1 to 99 nM. As to `COC(=O)N[C@@H](C(=O)N1CCC[C@H]1c1ncc(-c2ccc(-c3ccc(-c4cnc([C@@H]5CCCN5C(=O)CN5CCN(C)CC5)[nH]4)cc3)cc2)[nH]1)c1ccccc1` [Example 57, methyl ((1R)-2-((2S)-2-(5-(4′-(2-((2S)-1-((4-methyl-1-piperazinyl)acetyl)-2-pyrrolidinyl)-1H-imidazol-5-yl)-4-biphenylyl)-1H-imidazol-2-yl)-1-pyrrolidinyl)-2-oxo-1-phenylethyl)carbamate], the EC50 is 0.001 to 0.999 nM.

Turning to `Cc1nc([C@@H]2CCCN2C(=O)[C@@H](c2ccccc2)N(C)C)[nH]c1-c1ccc(-c2ccc(-c3nc([C@@H]4CCCN4C(=O)[C@@H](c4ccccc4)N(C)C)[nH]c3C)cc2)cc1` [Example E5g, (1R,1′R)-2,2′-(4,4′-biphenyldiylbis((4-methyl-1H-imidazole-5,2-diyl)(2S)-2,1-pyrrolidinediyl))bis(N,N-dimethyl-2-oxo-1-phenylethanamine)], the EC50 lay within 0.001 to 0.999 nM.

On to `CN(C)[C@@H](C(=O)N1CCC[C@H]1c1ncc(-c2ccc(-c3cnc(-c4cnc([C@@H]5CCCN5C(=O)[C@@H](c5ccccc5)N(C)C)[nH]4)cn3)cc2)[nH]1)c1ccccc1` [Example 152j-7, (1R)-2-((2S)-2-(5-(5-(4-(2-((2S)-1-((2R)-2-(dimethylamino)-2-phenylacetyl)-2-pyrrolidinyl)-1H-imidazol-5-yl)phenyl)-2-pyrazinyl)-1H-imidazol-2-yl)-1-pyrrolidinyl)-N,N-dimethyl-2-oxo-1-phenylethanamine], for which the EC50 fell in the range of 1 to 99 nM. As for `COC(=O)N[C@@H](C(=O)N1CCC[C@H]1c1ncc(-c2ccc(-c3ccc(-c4cnc([C@@H]5CCCN5C(=O)Cc5ccc(Cl)cc5)[nH]4)cc3)cc2)[nH]1)c1ccccc1` [Example 84-68, methyl ((1R)-2-((2S)-2-(5-(4′-(2-((2S)-1-((4-chlorophenyl)acetyl)-2-pyrrolidinyl)-1H-imidazol-5-yl)-4-biphenylyl)-1H-imidazol-2-yl)-1-pyrrolidinyl)-2-oxo-1-phenylethyl)carbamate], the 50% effective concentration (EC50) is 1 to 99 nM. In the case of `COC(=O)N[C@@H](C(=O)N1CCC[C@H]1c1ncc(-c2ccc(-c3ccc(-c4cnc([C@@H]5CCCN5C(=O)[C@H]5CC[C@@H](NC(=O)OC(C)(C)C)CC5)[nH]4)cc3)cc2)[nH]1)c1ccccc1` [Example 84-35, methyl ((1R)-2-((2S)-2-(5-(4′-(2-((2S)-1-((cis-4-((tert-butoxycarbonyl)amino)cyclohexyl)carbonyl)-2-pyrrolidinyl)-1H-imidazol-5-yl)-4-biphenylyl)-1H-imidazol-2-yl)-1-pyrrolidinyl)-2-oxo-1-phenylethyl)carbamate], the EC50 lay in the range of 0.001 to 0.999 nM. Still for that read-out and setting: in the case of `COC[C@H](NC(=O)OC)C(=O)N1CCC[C@H]1c1ncc(-c2ccc(-c3ccc(-c4cnc([C@@H]5CCCN5C(=O)[C@H](C)NC(=O)OC)[nH]4)cc3)cc2)[nH]1` [Example M100, methyl ((1S)-2-((2S)-2-(5-(4′-(2-((2S)-1-(N-(methoxycarbonyl)-L-alanyl)-2-pyrrolidinyl)-1H-imidazol-5-yl)-4-biphenylyl)-1H-imidazol-2-yl)-1-pyrrolidinyl)-1-(methoxymethyl)-2-oxoethyl)carbamate] it was 1 to 99 nM. Regarding `COC(=O)N[C@H](C(=O)N1CCC[C@H]1c1nc(-c2ccc(-c3ccc(-c4cnc([C@@H]5CCCN5C(=O)[C@@H](NC(=O)OC)C5CCOCC5)[nH]4)cc3)cc2)c[nH]1)C1CCOCC1` [Example F38, methyl ((1S)-2-((2S)-2-(4-(4′-(2-((2S)-1-((2S)-2-((methoxycarbonyl)amino)-2-(tetrahydro-2H-pyran-4-yl)acetyl)-2-pyrrolidinyl)-1H-imidazol-5-yl)-4-biphenylyl)-1H-imidazol-2-yl)-1-pyrrolidinyl)-2-oxo-1-(tetrahydro-2H-pyran-4-yl)ethyl)carbamate], the EC50 is 0.001 to 0.999 nM. As to `COC(=O)N[C@@H](CCN(C)C)C(=O)N1CCC[C@H]1c1ncc(-c2ccc(-c3ccc(-c4cnc([C@@H]5CCCN5C(=O)[C@H](CCN(C)C)NC(=O)OC)[nH]4)cc3)cc2)[nH]1` [cj-146, dimethyl (4,4′-biphenyldiylbis(1H-imidazole-5,2-diyl(2S)-2,1-pyrrolidinediyl((2S)-4-(dimethylamino)-1-oxo-1,2-butanediyl)))biscarbamate], the 50% effective concentration (EC50) is 100 to 999 nM. The same measure, in the same setting: the figure for `COC(=O)N[C@H](C(=O)N1CCC[C@H]1c1ncc(-c2ccc(-c3ccc(-c4cnc([C@@H]5CCCN5C(=O)CNCc5ccccc5)[nH]4)cc3)cc2)[nH]1)C(C)C` [LS22, methyl ((1S)-1-(((2S)-2-(5-(4′-(2-((2S)-1-(N-benzylglycyl)-2-pyrrolidinyl)-1H-imidazol-5-yl)-4-biphenylyl)-1H-imidazol-2-yl)-1-pyrrolidinyl)carbonyl)-2-methylpropyl)carbamate] is 0.001 to 0.999 nM. Regarding `CN(C)[C@@H](C(=O)N1CCC[C@H]1c1ncc(-c2ccc(-c3ccc(-c4cnc([C@@H]5CCCN5C(=O)C5(C(F)(F)F)CC5)[nH]4)cc3)cc2)[nH]1)c1ccccc1` [Example 94-30, (1R)-N,N-dimethyl-2-oxo-1-phenyl-2-((2S)-2-(5-(4′-(2-((2S)-1-((1-(trifluoromethyl)cyclopropyl)carbonyl)-2-pyrrolidinyl)-1H-imidazol-5-yl)-4-biphenylyl)-1H-imidazol-2-yl)-1-pyrrolidinyl)ethanamine], the half-maximal effective concentration (EC50) was in the range of 0.001 to 0.999 nM. As for `CN(C)[C@@H](C(=O)N1CCC[C@H]1c1ncc(-c2ccc(-c3ccc(-c4cnc([C@@H]5CCCN5C(=O)c5cccc(N6CCCC6)c5)[nH]4)cc3)cc2)[nH]1)c1ccccc1` [Example 94-27, (1R)-N,N-dimethyl-2-oxo-1-phenyl-2-((2S)-2-(5-(4′-(2-((2S)-1-(3-(1-pyrrolidinyl)benzoyl)-2-pyrrolidinyl)-1H-imidazol-5-yl)-4-biphenylyl)-1H-imidazol-2-yl)-1-pyrrolidinyl)ethanamine], the half-maximal effective concentration (EC50) was in the range of 1 to 99 nM.
